Target: T1, Aromatic-L-amino-acid decarboxylase (Mus musculus, UniProt O88533)
T1 sequence (O88533 whole entry): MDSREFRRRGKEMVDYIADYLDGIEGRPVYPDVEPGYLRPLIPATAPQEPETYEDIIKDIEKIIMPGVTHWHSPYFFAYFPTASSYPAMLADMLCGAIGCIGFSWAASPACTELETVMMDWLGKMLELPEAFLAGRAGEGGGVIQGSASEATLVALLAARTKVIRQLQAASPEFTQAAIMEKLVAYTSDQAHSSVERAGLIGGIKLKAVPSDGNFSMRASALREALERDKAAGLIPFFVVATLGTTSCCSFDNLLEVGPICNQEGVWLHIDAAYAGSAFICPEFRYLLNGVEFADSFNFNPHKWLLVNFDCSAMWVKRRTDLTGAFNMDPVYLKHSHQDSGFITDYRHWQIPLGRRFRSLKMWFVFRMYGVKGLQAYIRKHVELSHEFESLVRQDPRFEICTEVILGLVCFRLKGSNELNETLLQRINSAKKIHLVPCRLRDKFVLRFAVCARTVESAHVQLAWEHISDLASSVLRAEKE
Assay: Dissociation constant (KI) was evaluated as inhibitor of murine liver aromatic L-amino acid decarboxylase (AADC)

SMILES: N[C@@](CF)(Cc1c[nH]c2ccc(O)cc12)C(=O)O
- Ki: 24.3 µM
